Source: patent US10167262B2, “Herbicidal substituted 3-arylpyrazoles” (FMC CORPORATION, priority 2014, dated 2019)

Columns and labels:
Assay in all cases: Test A pre-/postemergence greenhouse herbicide test, visual injury rating 0-100
Format in all cases: in vivo
Details in all cases: 1000 g ai/ha
[1] = tested on: barnyardgrass (Echinochloa crus-galli)
Excerpt: (§1) Seeds of plant species selected from barnyardgrass (Echinochloa crus-galli), large (Lg) crabgrass (Digitaria sanguinalis), giant foxtail (Setaria faberii), morningglory (Ipomoea spp.), pigweed (Amaranthus retroflexus), velvetleaf (Abutilon theophrasti), wheat (Triticum aestivum), and corn (Zea mays) were planted into a blend of loam soil and sand and treated preemergence with a directed soil spray using test chemicals formulated in a non-phytotoxic solvent mixture which included a surfactant. At the same time these species were also treated with postemergence applications of test chemicals formulated in the same manner. Plants ranged in height from 2 to 10 cm and were in the one- to two-leaf stage for the postemergence treatment. Treated plants and untreated controls were maintained in a greenhouse for approximately 10 days, after which time all treated plants were compared to untreated controls and visually evaluated for injury. Plant response ratings, summarized in Table A, are based on a 0 to 100 scale where 0 is no effect and 100 is complete control. A dash (-) response means no test result.

corn (Zea mays) = tested on: corn (Zea mays)
Excerpt: as §1

[2] = tested on: giant foxtail (Setaria faberii)
Excerpt: as §1

[3] = tested on: large (Lg) crabgrass (Digitaria sanguinalis)
Excerpt: as §1

[4] = tested on: morningglory (Ipomoea spp.)
Excerpt: as §1

[5] = tested on: pigweed (Amaranthus retroflexus)
Excerpt: as §1

[6] = tested on: velvetleaf (Abutilon theophrasti)
Excerpt: as §1

[7] = tested on: wheat (Triticum aestivum)
Excerpt: as §1

| Structure (SMILES) | Plant response rating (0 to 100 scale), Barnyardgrass ([1]; Postemergence) | Plant response rating (0 to 100 scale), Barnyardgrass ([1]; Preemergence) | Plant response rating (0 to 100 scale), Corn (corn (Zea mays); Postemergence) | Plant response rating (0 to 100 scale), Corn (corn (Zea mays); Preemergence) | Plant response rating (0 to 100 scale), Foxtail, Giant ([2]; Postemergence) | Plant response rating (0 to 100 scale), Foxtail, Giant ([2]; Preemergence) | Plant response rating (0 to 100 scale), Crabgrass, Large ([3]; Postemergence) | Plant response rating (0 to 100 scale), Crabgrass, Large ([3]; Preemergence) | Plant response rating (0 to 100 scale), Morningglory ([4]; Postemergence) | Plant response rating (0 to 100 scale), Morningglory ([4]; Preemergence) | Plant response rating (0 to 100 scale), Pigweed ([5]; Postemergence) | Plant response rating (0 to 100 scale), Pigweed ([5]; Preemergence) | Plant response rating (0 to 100 scale), Velvetleaf ([6]; Postemergence) | Plant response rating (0 to 100 scale), Velvetleaf ([6]; Preemergence) | Plant response rating (0 to 100 scale), Wheat ([7]; Postemergence) | Plant response rating (0 to 100 scale), Wheat ([7]; Preemergence) |
| --- | --- | --- | --- | --- | --- | --- | --- | --- | --- | --- | --- | --- | --- | --- | --- | --- |
| O=C(c1ccccc1)c1cn(CC(F)F)nc1-c1cc(F)cc(Cl)c1 [Compound 40] | 0 | 0 | 0 | 0 | 0 | 0 | 0 | 0 | 0 | 0 | 40 | 0 | 0 | 0 | 0 | 0 |
| ON=C(c1ccccc1)c1c[nH]nc1-c1cc(Br)cc(Br)c1 [Compound 49] | 0 | 0 | 0 | 0 | 0 | 10 | 0 | 0 | 0 | 0 | 90 | 80 | 80 | 0 | 0 | 0 |
| Clc1cc(Cl)cc(-c2n[nH]cc2C(=NN2CCCCC2)c2ccccc2)c1 [Compound 51] | 0 | 0 | 0 | 0 | 0 | 0 | 0 | 0 | 0 | 0 | 90 | 100 | 90 | 90 | 0 | 0 |
| N#CN=C(c1ccccc1)c1c[nH]nc1-c1cc(Cl)cc(Cl)c1 [Compound 52] | 0 | 0 | 0 | 0 | 0 | 0 | 0 | 0 | 0 | 0 | 90 | 50 | 100 | 60 | 0 | 0 |
